ChEMBL document CHEMBL1159111, “Design, synthesis and biological evaluation of chrysin long-chain derivatives as potential anticancer agents” (Bioorg Med Chem, 2010)
Converted amounts (≈) assume the structure as drawn.

Tests used:
[1] = target: Epidermal growth factor receptor (Homo sapiens, UniProt P00533); test: Inhibition of EGFR expressed in Sf9 cells assessed as inhibition of receptor autophosphorylation by DELFIA time resolved fluorimetry
HT-29 = test: Antiproliferative activity against human HT-29 cells after 48 hrs by MTT assay; settings: HT-29, 48 h

Sequence of Epidermal growth factor receptor (P00533 whole entry): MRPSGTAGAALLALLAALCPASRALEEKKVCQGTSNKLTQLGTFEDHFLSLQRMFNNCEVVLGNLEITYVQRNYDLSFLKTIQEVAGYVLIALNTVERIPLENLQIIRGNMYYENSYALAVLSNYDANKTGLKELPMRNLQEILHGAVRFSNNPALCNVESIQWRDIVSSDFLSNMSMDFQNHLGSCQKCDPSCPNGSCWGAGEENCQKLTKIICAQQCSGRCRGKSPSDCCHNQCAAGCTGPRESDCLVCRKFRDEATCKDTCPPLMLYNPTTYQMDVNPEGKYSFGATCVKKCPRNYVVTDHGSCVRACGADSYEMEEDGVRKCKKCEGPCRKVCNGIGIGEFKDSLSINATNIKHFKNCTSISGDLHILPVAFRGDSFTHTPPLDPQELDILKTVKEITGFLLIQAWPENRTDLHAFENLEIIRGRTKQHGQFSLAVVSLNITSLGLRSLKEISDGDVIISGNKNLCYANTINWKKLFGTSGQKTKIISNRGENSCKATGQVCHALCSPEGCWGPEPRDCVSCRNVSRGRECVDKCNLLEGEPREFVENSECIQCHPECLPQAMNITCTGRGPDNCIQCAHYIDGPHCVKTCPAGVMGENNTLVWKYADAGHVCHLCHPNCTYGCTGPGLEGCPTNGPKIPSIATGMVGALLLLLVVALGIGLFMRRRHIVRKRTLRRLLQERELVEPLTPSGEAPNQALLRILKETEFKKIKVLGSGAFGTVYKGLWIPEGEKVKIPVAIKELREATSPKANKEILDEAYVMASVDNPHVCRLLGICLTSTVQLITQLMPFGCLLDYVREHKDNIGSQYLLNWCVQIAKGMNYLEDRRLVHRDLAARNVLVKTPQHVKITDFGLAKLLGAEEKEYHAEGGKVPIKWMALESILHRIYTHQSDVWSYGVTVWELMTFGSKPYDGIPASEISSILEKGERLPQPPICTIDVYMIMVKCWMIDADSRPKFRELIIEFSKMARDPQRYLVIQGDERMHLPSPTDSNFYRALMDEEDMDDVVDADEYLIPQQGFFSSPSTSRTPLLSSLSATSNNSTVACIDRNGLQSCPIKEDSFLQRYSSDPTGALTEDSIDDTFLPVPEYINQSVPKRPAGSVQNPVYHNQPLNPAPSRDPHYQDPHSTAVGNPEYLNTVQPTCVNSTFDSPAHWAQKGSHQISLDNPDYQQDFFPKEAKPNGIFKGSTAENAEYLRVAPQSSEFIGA

SMILES | IC50 [1] [nM] | IC50 (HT-29) [µg/mL]
CCCCCCOC(=O)COc1cc(O)c2c(=O)cc(-c3ccccc3)oc2c1 | 9120 | 77 (≈ 194 µM)
CCCCCCCCCCCCCCCCCCCCOC(=O)COc1cc(O)c2c(=O)cc(-c3ccccc3)oc2c1 | 1590 | 20 (≈ 33.7 µM)
CCCCCCCCCCCCCCCCCCCCNC(=O)COc1cc(O)c2c(=O)cc(-c3ccccc3)oc2c1 | 1350 | 19 (≈ 32.1 µM)
CCCCCCCCCCCCCCCCCCOC(=O)COc1cc(O)c2c(=O)cc(-c3ccccc3)oc2c1 | 692 | 15 (≈ 26.6 µM)
CCCCCCCNC(=O)COc1cc(O)c2c(=O)cc(-c3ccccc3)oc2c1 | 6280 | 65 (≈ 159 µM)
CCCCCCCCNC(=O)COc1cc(O)c2c(=O)cc(-c3ccccc3)oc2c1 | 5330 | 51 (≈ 120 µM)
CCCCCCCCCNC(=O)COc1cc(O)c2c(=O)cc(-c3ccccc3)oc2c1 | 3580 | 39 (≈ 89.1 µM)
CCCCCCCCCCCCNC(=O)COc1cc(O)c2c(=O)cc(-c3ccccc3)oc2c1 | – | 16 (≈ 33.4 µM)
CCCCCCCCCCCCOC(=O)COc1cc(O)c2c(=O)cc(-c3ccccc3)oc2c1 | 1720 | 24 (≈ 49.9 µM)
CCCCCCCCCCCCCCOC(=O)COc1cc(O)c2c(=O)cc(-c3ccccc3)oc2c1 | – | 16 (≈ 31.5 µM)
CCCCCCCCCCCCCCCCOC(=O)COc1cc(O)c2c(=O)cc(-c3ccccc3)oc2c1 | 48 | 8.7 (≈ 16.2 µM)
CCCCCCCCCCCCCCNC(=O)COc1cc(O)c2c(=O)cc(-c3ccccc3)oc2c1 | 316 | 8 (≈ 15.8 µM)
CCCCCCCCCOC(=O)COc1cc(O)c2c(=O)cc(-c3ccccc3)oc2c1 | 4960 | 43 (≈ 98.1 µM)
CCCCCCCOC(=O)COc1cc(O)c2c(=O)cc(-c3ccccc3)oc2c1 | 7230 | 58 (≈ 141 µM)
CCCCCCCCCCOC(=O)COc1cc(O)c2c(=O)cc(-c3ccccc3)oc2c1 | 3110 | 31 (≈ 68.5 µM)
CCCCCCCCCCCCCCCCCCNC(=O)COc1cc(O)c2c(=O)cc(-c3ccccc3)oc2c1 | 464 | 11 (≈ 19.5 µM)
CCCCCCCCCCCCCCCCNC(=O)COc1cc(O)c2c(=O)cc(-c3ccccc3)oc2c1 | 35 | 4.2 (≈ 7.84 µM)
CCCCCCCCOC(=O)COc1cc(O)c2c(=O)cc(-c3ccccc3)oc2c1 | 5840 | 51 (≈ 120 µM)
CCCCCCCCCCNC(=O)COc1cc(O)c2c(=O)cc(-c3ccccc3)oc2c1 | 2140 | 25 (≈ 55.4 µM)
CCCCCCNC(=O)COc1cc(O)c2c(=O)cc(-c3ccccc3)oc2c1 | 8710 | 67 (≈ 169 µM)
